Measurements: ChEMBL document CHEMBL1201862, “PubChem BioAssay data set” (2004)
The source made the active and inactive calls.

Assays:
[1] = molecular target: T1, Histone-lysine N-methyltransferase NSD2 (Homo sapiens, UniProt O96028); type: biochemical
T1 sequence (O96028 whole entry): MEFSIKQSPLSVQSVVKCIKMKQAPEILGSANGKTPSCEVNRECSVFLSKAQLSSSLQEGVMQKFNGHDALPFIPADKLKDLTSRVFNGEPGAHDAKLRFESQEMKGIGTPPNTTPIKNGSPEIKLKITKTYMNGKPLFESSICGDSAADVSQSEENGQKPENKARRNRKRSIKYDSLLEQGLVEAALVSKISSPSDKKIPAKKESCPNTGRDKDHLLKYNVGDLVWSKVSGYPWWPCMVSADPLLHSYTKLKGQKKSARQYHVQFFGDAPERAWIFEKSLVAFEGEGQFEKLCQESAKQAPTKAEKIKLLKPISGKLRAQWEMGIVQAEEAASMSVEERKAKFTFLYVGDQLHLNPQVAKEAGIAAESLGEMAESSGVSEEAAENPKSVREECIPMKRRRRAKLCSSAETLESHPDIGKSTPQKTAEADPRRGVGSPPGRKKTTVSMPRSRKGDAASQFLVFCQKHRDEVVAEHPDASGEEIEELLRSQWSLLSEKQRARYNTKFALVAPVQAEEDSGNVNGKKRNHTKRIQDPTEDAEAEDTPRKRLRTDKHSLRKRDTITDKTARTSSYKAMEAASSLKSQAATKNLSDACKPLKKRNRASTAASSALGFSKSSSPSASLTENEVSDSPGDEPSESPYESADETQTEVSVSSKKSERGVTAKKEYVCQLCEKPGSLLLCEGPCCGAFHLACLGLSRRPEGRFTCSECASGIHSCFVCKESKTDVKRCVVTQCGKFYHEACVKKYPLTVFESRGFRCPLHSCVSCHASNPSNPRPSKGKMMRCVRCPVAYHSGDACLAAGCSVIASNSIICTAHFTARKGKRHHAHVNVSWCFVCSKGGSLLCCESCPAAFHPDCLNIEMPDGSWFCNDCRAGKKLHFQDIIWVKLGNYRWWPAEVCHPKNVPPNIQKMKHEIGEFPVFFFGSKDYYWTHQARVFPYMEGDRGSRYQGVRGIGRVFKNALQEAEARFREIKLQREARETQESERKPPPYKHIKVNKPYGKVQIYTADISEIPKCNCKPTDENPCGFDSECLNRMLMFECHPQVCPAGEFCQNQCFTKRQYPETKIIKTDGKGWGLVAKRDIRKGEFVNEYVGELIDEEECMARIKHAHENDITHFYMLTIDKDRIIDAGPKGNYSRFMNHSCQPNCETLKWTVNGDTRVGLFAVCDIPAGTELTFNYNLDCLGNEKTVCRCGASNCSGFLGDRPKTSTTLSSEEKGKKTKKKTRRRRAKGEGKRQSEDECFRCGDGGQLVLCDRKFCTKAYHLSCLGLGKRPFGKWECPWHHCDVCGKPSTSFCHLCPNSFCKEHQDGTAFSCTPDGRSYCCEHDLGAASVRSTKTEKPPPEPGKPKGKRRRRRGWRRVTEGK

[2] = molecular target: Eukaryotic translation initiation factor 4E (Mus musculus, UniProt P63073); experiment: blockers of eIF4G binding by eIF4E – biochemical, TR-FRET, dose response (AID 855); type: functional;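 note: potency for disrupting eIF4E binding to eIF4GI seen as loss of FRET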
[3] = viability loss in THP-1 monocytes – THP-1 cells, cytotoxicity control for Vif-APOBEC3G degradation inhibitor project, dose response (AID 1117359); type: functional; conditions: THP-1
[4] = THP-1 cell cytotoxicity, dose response, cytotoxicity control for non-replicating M. tuberculosis project (AID 489025); type: functional
cells [5] = type: functional
Streptococcus = experiment: GAS UMAA2166 growth inhibition – luminescence, BacTiterGlo, counter-screen for streptokinase expression inhibitor project, dose response (AID 1915); type: functional, organism-based;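 note: potency for reduction of bacterial viability or growth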
Streptokinase A = molecular target: T2, Streptokinase A (Streptococcus pyogenes serotype M1, UniProt P10520); experiment: viability-normalized secreted streptokinase activity reduction – plasminogen activation absorbance, OD405, dose response (AID 1914); type: functional, Streptococcus pyogenes M1 GAS;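 note: secreted streptokinase activity via plasminogen activation per viability signal from cell pellet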
T2 sequence (P10520 whole entry): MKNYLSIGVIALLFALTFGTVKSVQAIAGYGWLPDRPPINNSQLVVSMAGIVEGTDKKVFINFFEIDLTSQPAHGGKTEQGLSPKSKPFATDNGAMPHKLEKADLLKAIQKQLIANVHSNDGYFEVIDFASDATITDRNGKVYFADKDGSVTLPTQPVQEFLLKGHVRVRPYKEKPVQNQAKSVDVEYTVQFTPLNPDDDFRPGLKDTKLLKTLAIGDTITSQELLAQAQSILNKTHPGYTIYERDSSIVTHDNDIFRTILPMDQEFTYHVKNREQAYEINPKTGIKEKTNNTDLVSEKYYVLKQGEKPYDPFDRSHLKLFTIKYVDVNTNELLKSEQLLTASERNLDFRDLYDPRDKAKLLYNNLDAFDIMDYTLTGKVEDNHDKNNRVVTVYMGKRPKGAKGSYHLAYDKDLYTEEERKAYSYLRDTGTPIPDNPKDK

[6] = tested on: Streptococcus sp. 'group A'; experiment: Streptococcus pyogenes SK(-)GAS viability under kanamycin – luminescence, BacTiterGlo, confirmation, counter-screen for streptokinase expression inhibitor project, dose response (AID 1900); type: functional, organism-based
[7] = Luminescence Cell-Based Dose Response HTS to Identify Activators of Luciferase Translation or Activity in H4 […] Cells. [Related pubchem assays: 1829 (Project Summary), 1814 (Primary HTS)]; type: functional
H4 = experiment: Luminescence Cell-Based Dose Response HTS to Identify Activators of 5'UTR Stem-Loop Driven Prion Protein mRNA Translation in H4 Neuroglioblastoma Cells. [Related pubchem assays: 1829 (Project Summary), 1814 (Primary HTS)]; type: functional; conditions: Homo sapiens
Prothrombin = Prothrombin (Homo sapiens, UniProt P00734); experiment: Thrombin 1536 HTS Dose Response Confirmation. [Related pubchem assays: 1046 (Thrombin 1536 HTS; hits were confirmed in this assay)]; type: functional
[8] = reduced cellular PGC1a acetyl-lysine signal – cell-based, cherry-picked samples, dose response (AID 720514); type: functional;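 note: potency may reflect raised or lowered acetylation signal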
[9] = toxicity to human hepatoma HepG2 cells – cell-based, cherry-picked samples, cytotoxicity control, dose response (AID 1159577); type: functional
[10] = P. falciparum Dd2 growth inhibitors, dose response, SYBR Green, cherry-picked samples (AID 1159567); type: functional, cell-based
cells [11] = type: functional, cell-based
cells [12] = type: functional, cell-based; remark: listed apart in the source
[13] = HEK-293T viability loss after treatment – luminescence, T-cell screen hits, cytotoxicity control for TCR NF-kB inhibitor project, dose response (AID 489026); type: functional, cell-based;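 note: cells exposed to compound about 14 hours before the viability readout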
Leucine aminopeptidase = molecular target: T3, Leucine aminopeptidase (Plasmodium falciparum 3D7, UniProt Q8IL11); experiment: P. falciparum M17LAP inhibitors, primary screen, biochemical, fluorogenic H-Leu-NHMec substrate, 1536-well (AID 1619); type: functional
T3 sequence (Q8IL11 whole entry): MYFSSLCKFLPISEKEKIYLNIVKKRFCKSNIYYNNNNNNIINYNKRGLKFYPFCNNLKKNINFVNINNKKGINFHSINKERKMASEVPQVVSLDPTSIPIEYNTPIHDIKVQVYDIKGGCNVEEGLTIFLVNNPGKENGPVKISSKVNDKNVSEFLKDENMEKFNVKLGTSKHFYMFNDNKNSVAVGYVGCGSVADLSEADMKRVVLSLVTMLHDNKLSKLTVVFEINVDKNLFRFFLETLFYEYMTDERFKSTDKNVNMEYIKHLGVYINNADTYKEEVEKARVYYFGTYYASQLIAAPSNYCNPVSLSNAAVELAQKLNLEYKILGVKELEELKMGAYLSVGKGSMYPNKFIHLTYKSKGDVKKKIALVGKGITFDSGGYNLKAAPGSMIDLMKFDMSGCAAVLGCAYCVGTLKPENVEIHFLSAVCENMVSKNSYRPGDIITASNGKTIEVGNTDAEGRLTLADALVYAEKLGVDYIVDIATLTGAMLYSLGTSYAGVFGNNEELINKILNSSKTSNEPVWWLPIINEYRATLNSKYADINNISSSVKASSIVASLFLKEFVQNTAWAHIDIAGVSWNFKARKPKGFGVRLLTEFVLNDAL

[14] = molecular target: FAD-linked sulfhydryl oxidase ALR (Homo sapiens, UniProt P55789); experiment: ALR-catalysed DTT oxidation blockers – biochemical, H2O2 detection, luminescence, cherry-pick, dose response (AID 493248)
Paired box protein Pax-8 = Paired box protein Pax-8 (Homo sapiens, UniProt Q06710); experiment: PAX8 transcriptional activity inhibition in RMG-I – RMG-I cells, luciferase, cherry-pick, dose response (AID 687027); type: functional, cell-based;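 note: luciferase reporter driven by Pax8 target thyroperoxidase promoter measured by SteadyGlo luminescence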
[15] = loss of viability in HepG2 cells – cell-based, CellTiter-Glo, cherry-picked, cytotoxicity control for Shn3 inhibitor project, dose response (AID 624134); type: functional
[16] = off-target signal loss in HeLa-CEM21 co-culture – HeLa F-luc CTL cells, cherry-picked, counter-screen for HIV-1 Env fusion inhibitor project, dose response (AID 652040); type: functional, cell-based;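 note: potency for signal decrease marking cytotoxic or nonspecific inhibition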
[17] = Luminescence Cell-Based Dose Retest to Confirm Inhibitors of Cancer Stem Cells. [Related pubchem assays (depositor defined):AID2717, AID2721]; type: functional; conditions: Homo sapiens
[18] = HIV-1 AD8 envelope cell-cell fusion blockers – cherry-pick, dose response (AID 652062); type: functional, cell-based;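 note: luciferase signal from cell-cell fusion driven by HIV-1 clade B AD8 Env; potency is for inhibitors of fusion seen as a drop in luminescence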
[19] = blockers of HIV-1 envelope-mediated cell-cell fusion – cherry-pick, dose response (AID 652057); type: functional, cell-based
[20] = viability loss in CEM21 cells – cell-based, CellTiter-Glo luminescence, cherry-picked, cytotoxicity control for viral fusion inhibitor project, dose response (AID 652042); type: functional;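 note: potency for signal decrease meaning cytotoxicity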
[21] = reduction of Shn3 3'UTR-driven luciferase in osteoblasts – cell-based, Clone20 osteoblasts, firefly luciferase, cherry-picked, dose response (AID 624132); type: functional;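 note: firefly luciferase luminescence from reporter carrying the Shn3 3'UTR in osteoblasts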
[22] = blockers of HIV-1 ZM109 envelope-driven cell-cell fusion – HeLa effector, CEM target cells, luciferase, cherry-pick, dose response (AID 652058); type: functional, cell-based;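 note: luciferase signal from HIV-1 Env mediated cell-cell fusion of effector and target cells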
[23] = non-specific 3'UTR reporter inhibition in Clone20-Shn3RL – cell-based, Renilla luciferase, cherry-picked, counter-screen for Shn3 inhibitor project, dose response (AID 624133); type: functional
[24] = Luminescence Cell-Based Dose Response HTS to Identify Inhibitors of 5'UTR Stem-Loop Driven Prion Protein mRNA Translation in H4 Neuroglioblastoma Cells. [Related pubchem assays: 1827 (Project Summary), 1813 (Primary HTS)]; type: functional
[25] = alpha-synuclein stem-loop luciferase translation blockers – H4 neuroglioma cells, luminescence, confirmation (AID 1988); type: functional, cell-based
[26] = luciferase reporter signal suppression in cells – H4 neuroglioma cells, luminescence, dose response (AID 1990); type: functional, cell-based
[27] = molecular target: Induced myeloid leukemia cell differentiation protein Mcl-1 (Homo sapiens, UniProt Q07820); type: functional
Induced myeloid leukemia cell differentiation protein Mcl-1, sequence (Q07820 whole entry): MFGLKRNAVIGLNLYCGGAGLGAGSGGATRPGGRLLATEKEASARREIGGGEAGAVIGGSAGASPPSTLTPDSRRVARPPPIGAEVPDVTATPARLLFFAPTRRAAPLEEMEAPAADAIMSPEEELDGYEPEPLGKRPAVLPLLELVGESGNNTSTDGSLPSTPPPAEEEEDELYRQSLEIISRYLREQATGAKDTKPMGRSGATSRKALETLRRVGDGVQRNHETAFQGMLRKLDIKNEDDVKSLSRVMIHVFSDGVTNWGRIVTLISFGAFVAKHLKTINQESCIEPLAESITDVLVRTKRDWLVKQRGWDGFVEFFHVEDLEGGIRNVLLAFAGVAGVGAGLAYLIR

Eukaryotic translation initiation factor 4E, sequence (P63073 whole entry): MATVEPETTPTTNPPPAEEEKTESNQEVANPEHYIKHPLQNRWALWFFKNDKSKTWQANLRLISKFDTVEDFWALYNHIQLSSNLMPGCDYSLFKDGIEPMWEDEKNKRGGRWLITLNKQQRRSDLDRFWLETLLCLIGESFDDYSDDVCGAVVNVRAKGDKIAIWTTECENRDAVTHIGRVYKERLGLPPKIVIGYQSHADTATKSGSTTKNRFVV
Paired box protein Pax-8, sequence (Q06710 whole entry): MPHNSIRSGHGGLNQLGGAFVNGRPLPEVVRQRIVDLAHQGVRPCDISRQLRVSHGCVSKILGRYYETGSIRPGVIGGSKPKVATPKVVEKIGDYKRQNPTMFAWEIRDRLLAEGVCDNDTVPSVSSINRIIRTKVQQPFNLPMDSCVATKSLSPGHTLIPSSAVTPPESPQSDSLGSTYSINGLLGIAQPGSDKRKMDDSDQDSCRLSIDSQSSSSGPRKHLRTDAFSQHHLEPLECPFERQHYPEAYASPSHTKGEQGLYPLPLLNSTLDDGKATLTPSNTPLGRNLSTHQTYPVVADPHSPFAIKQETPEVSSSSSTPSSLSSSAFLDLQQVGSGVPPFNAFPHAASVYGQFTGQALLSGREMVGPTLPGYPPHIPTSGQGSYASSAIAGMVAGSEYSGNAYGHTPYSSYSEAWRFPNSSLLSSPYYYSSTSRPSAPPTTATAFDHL
FAD-linked sulfhydryl oxidase ALR, sequence (P55789 whole entry): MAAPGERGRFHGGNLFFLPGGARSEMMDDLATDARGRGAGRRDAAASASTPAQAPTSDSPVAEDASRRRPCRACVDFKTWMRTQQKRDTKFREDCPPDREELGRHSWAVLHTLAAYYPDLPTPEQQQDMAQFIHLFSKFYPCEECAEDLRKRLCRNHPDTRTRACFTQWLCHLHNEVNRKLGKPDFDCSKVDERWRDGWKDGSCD

CCN(CC)CCNC(=O)Cc1nn(Cc2ccccc2)c(=O)c2ccccc12
AC50 [1]: > 20 µM (inactive)

Cc1ccc(CN(Cc2ccccc2)C(S)=NCC(=O)N2CCC3(CC2)OCCO3)o1
IC50 [2]: 50 µM (inactive)

COc1ccc(-c2cc(C)nc(SCC(=O)c3cccc([N+](=O)[O-])c3)n2)cc1
CC50 [3]: > 40 µM (active)

c1ccc(CNCCC(Cc2ccccc2)c2ccco2)cc1 (centres undefined)
CC50 [4]: > 40 µM (active)
IC50 (cells [5]): > 50 µM (active)

Cc1cc(C)c(C)c(OCCCOc2cccc3cccnc23)c1
EC50 (Streptococcus): 39.4 µM (active)
CC50 [3]: 15.4 µM (active)
EC50 (Streptokinase A): > 150 µM (not active)
EC50 [6]: 13.1 µM (active)

CCCCn1nnc(N(C(=O)c2cccs2)C(=O)c2cccs2)n1
EC50 [7]: 12.6 µM (active)
EC50 (H4): > 120 µM (not active)
IC50 (Prothrombin): 0.88 µM (active)

O=C(Cn1nc(C(F)F)cc1C(F)F)NNC(=S)Nc1ccc(F)cc1
IC50 (Prothrombin): > 50 µM (not active)

CC(C(=O)NCC1CCCCC1)N(C)Cc1ccc(Br)cc1 (centres undefined)
CC50 [3]: > 40 µM (active)

O=C1c2ccccc2-[n+]2ccc3c([nH]c4ccccc43)c21 [FASCAPLYSIN]
AC50 [8]: 0.358 µM (active)

OC[C@@H]1[C@H](c2ccc(C#CC3CCCC3)cc2)[C@H]2CN(CCC(F)(F)F)CCCCN12
AC50 [9]: 9.12 µM (active)
AC50 [10]: 1.43 µM (active)
AC50 [8]: 10.4 µM (active)

CC(C)(C)CN1CCNC(=O)C1CC(=O)NCCc1ccccc1F (centres undefined)
IC50 (cells [11]): > 29.9 µM (inactive)
EC50 (cells [12]): > 29.9 µM (inactive)

COc1ccccc1-c1nnc2n1N=C(c1ccc(O)c(O)c1)CS2
IC50 [13]: > 80 µM (inactive)
IC50 (Leucine aminopeptidase): 39.2 µM (active)
AC50 [1]: 12.4 µM (active)
AC50 [14]: 1.97 µM (active)

C[C@H](CO)N1C[C@H](C)[C@H](CN(C)C(=O)NC2CCCCC2)Oc2cc(C#Cc3cccc(F)c3)ccc2S1(=O)=O
AC50 (Paired box protein Pax-8): 6.2 µM (active)
AC50 [8]: 14.1 µM (active)

CNCCCCOc1ccccc1-c1ccccc1
AC50 [1]: > 20 µM (inactive)

CCN(CC)S(=O)(=O)c1ccc2c(c1)c(=O)c(C(=O)NCc1ccc3c(c1)OCO3)cn2C
IC50 (Prothrombin): 0.852 µM (active)

Oc1n[nH]c(CSCc2ccccc2Cl)n1
IC50 [2]: > 64 µM (inactive)

Fc1ccc(C(OCCN2CCN(CCCc3ccccc3)CC2)c2ccc(F)cc2)cc1
AC50 [15]: 38.8 µM (active)
AC50 [16]: 13 µM (active)
AC50 [17]: 3.05 µM (active)
AC50 [18]: 12.3 µM (active)
AC50 [19]: 8.27 µM (active)
AC50 [20]: 14.5 µM (active)
AC50 [21]: 6.17 µM (active)
AC50 [22]: 8.74 µM (active)
AC50 [23]: 8.11 µM (active)
EC50 [24]: > 120 µM (not active)
EC50 [25]: > 120 µM (not active)
EC50 [26]: 9.61 µM (active)

N#Cc1cc(-c2ccccc2)nn1-c1ccccc1
IC50 [27]: 1.44 µM (active)
IC50 [2]: > 64 µM (inactive)

O=C(Cc1ccccc1)n1nc(-c2ccccc2)nc1NCc1ccco1
IC50 (Prothrombin): 0.1 µM (active)
